According to ChEMBL document CHEMBL3044811, “Efficacy of grain protectants against four psocid species on maize, rice and wheat” (2009):
The source made the active and inactive calls. The calls are words filed in the database; no cut-off is given here.

Assays:
Liposcelis entomophila [1] = assay: Insecticidal activity against Liposcelis entomophila in compound pre-treated wheat grains assessed as decrease in progeny production at 1.6 ppm after 30 days; format: functional, organism-based
[2] = system: Liposcelis bostrychophila; assay: Insecticidal activity against Liposcelis bostrychophila (booklice) in compound pre-treated rice grains assessed as effect on progeny production at 2.2 ppm after 30 days; format: functional, organism-based
Liposcelis entomophila [3] = assay: Insecticidal activity against Liposcelis entomophila in compound pre-treated maize grains assessed as mortality at 1.6 ppm after 14 days (reference value: 14.4 +/-4.1%); format: functional
Lepinotus reticulatus [4] = assay: Insecticidal activity against Lepinotus reticulatus in compound pre-treated maize grains assessed as decrease in progeny production at 1.6 ppm after 30 days; format: functional, organism-based
Liposcelis entomophila [5] = assay: Insecticidal activity against Liposcelis entomophila in compound pre-treated rice grains assessed as effect on progeny production at 2.2 ppm after 30 days; format: functional, organism-based
Lepinotus reticulatus [6] = assay: Insecticidal activity against Lepinotus reticulatus in compound pre-treated wheat grains assessed as decrease in progeny production at 1.6 ppm after 30 days; format: functional, organism-based
Liposcelis paeta [7] = assay: Insecticidal activity against Liposcelis paeta in compound pre-treated maize grains assessed as mortality at 1.6 ppm after 14 days (reference value: 14.1 +/-4.1%); format: functional
Lepinotus reticulatus [8] = assay: Insecticidal activity against Lepinotus reticulatus in compound pre-treated wheat grains assessed as mortality at 1.6 ppm after 7 days (reference value: 10.0 +/-5.3%); format: functional
[9] = system: Liposcelis bostrychophila; assay: Insecticidal activity against Liposcelis bostrychophila (booklice) in compound pre-treated rice grains assessed as mortality at 2.2 ppm after 7 days (reference value: 8.9 +/-4.5%); format: functional
[10] = system: Liposcelis bostrychophila; assay: Insecticidal activity against Liposcelis bostrychophila (booklice) in compound pre-treated maize grains assessed as mortality at 1.6 ppm after 7 days (reference value: 8.9 +/-2.6%); format: functional
Lepinotus reticulatus [11] = assay: Insecticidal activity against Lepinotus reticulatus in compound pre-treated rice grains assessed as mortality at 2.2 ppm after 7 days (reference value: 6.8 +/-2.4%); format: functional
Lepinotus reticulatus [12] = assay: Insecticidal activity against Lepinotus reticulatus in compound pre-treated wheat grains assessed as mortality at 1.6 ppm after 14 days (reference value: 21.1 +/-7.4%); format: functional
Liposcelis entomophila [13] = assay: Insecticidal activity against Liposcelis entomophila in compound pre-treated maize grains assessed as decrease in progeny production at 1.6 ppm after 30 days; format: functional, organism-based
Liposcelis paeta [14] = assay: Insecticidal activity against Liposcelis paeta in compound pre-treated rice grains assessed as mortality at 2.2 ppm after 7 days (reference value: 3.3 +/-1.7%); format: functional
Liposcelis entomophila [15] = assay: Insecticidal activity against Liposcelis entomophila in compound pre-treated rice grains assessed as mortality at 2.2 ppm after 7 days (reference value: 3.3 +/-2.6%); format: functional
[16] = system: Liposcelis bostrychophila; assay: Insecticidal activity against Liposcelis bostrychophila (booklice) in compound pre-treated maize grains assessed as decrease in progeny production at 1.6 ppm after 30 days; format: functional, organism-based
Lepinotus reticulatus [17] = assay: Insecticidal activity against Lepinotus reticulatus in compound pre-treated maize grains assessed as mortality at 1.6 ppm after 14 days (reference value: 61.1 +/-11.9%); format: functional
[18] = system: Liposcelis bostrychophila; assay: Insecticidal activity against Liposcelis bostrychophila (booklice) in compound pre-treated wheat grains assessed as mortality at 1.6 ppm after 7 days (reference value: 3.3 +/-1.7%); format: functional
Lepinotus reticulatus [19] = assay: Insecticidal activity against Lepinotus reticulatus in compound pre-treated rice grains assessed as mortality at 2.2 ppm after 14 days (reference value: 15.5 +/-4.1%); format: functional
Liposcelis entomophila [20] = assay: Insecticidal activity against Liposcelis entomophila in compound pre-treated maize grains assessed as mortality at 1.6 ppm after 7 days (reference value: 15.6 +/-6.9%); format: functional
Liposcelis paeta [21] = assay: Insecticidal activity against Liposcelis paeta in compound pre-treated wheat grains assessed as mortality at 1.6 ppm after 14 days (reference value: 5.6 +/-1.8%); format: functional
Liposcelis entomophila [22] = assay: Insecticidal activity against Liposcelis entomophila in compound pre-treated wheat grains assessed as mortality at 1.6 ppm after 7 days (reference value: 5.6 +/-2.9%); format: functional
[23] = system: Liposcelis bostrychophila; assay: Insecticidal activity against Liposcelis bostrychophila (booklice) in compound pre-treated maize grains assessed as mortality at 1.6 ppm after 14 days (reference value: 13.5 +/-5.3%); format: functional
Liposcelis paeta [24] = assay: Insecticidal activity against Liposcelis paeta in compound pret-reated maize grains assessed as mortality at 1.6 ppm after 7 days (reference value: 13.3 +/-3.3%); format: functional; conditions: 168 h
[25] = system: Liposcelis bostrychophila; assay: Insecticidal activity against Liposcelis bostrychophila (booklice) in compound pre-treated wheat grains assessed as mortality at 1.6 ppm after 14 days (reference value: 6.8 +/-3.3%); format: functional
Liposcelis paeta [26] = assay: Insecticidal activity against Liposcelis paeta in compound pre-treated rice grains assessed as mortality at 2.2 ppm after 14 days (reference value: 3.4 +/-1.6%); format: functional
Liposcelis entomophila [27] = assay: Insecticidal activity against Liposcelis entomophila in compound pre-treated rice grains assessed as mortality at 2.2 ppm after 14 days (reference value: 10.0 +/-4.7%); format: functional
[28] = system: Liposcelis bostrychophila; assay: Insecticidal activity against Liposcelis bostrychophila (booklice) in compound pre-treated rice grains assessed as mortality at 2.2 ppm after 14 days (reference value: 9.7 +/-2.4%); format: functional
[29] = system: Liposcelis bostrychophila; assay: Insecticidal activity against Liposcelis bostrychophila (booklice) in compound pre-treated wheat grains assessed as effect on progeny production at 1.6 ppm after 30 days; format: functional, organism-based
Liposcelis entomophila [30] = assay: Insecticidal activity against Liposcelis entomophila in compound pre-treated wheat grains assessed as mortality at 1.6 ppm after 14 days (reference value: 13.3 +/-4.7%); format: functional
Lepinotus reticulatus [31] = assay: Insecticidal activity against Lepinotus reticulatus in compound pre-treated rice grains assessed as effect on progeny production at 2.2 ppm after 30 days; format: functional, organism-based
Lepinotus reticulatus [32] = assay: Insecticidal activity against Lepinotus reticulatus in compound pre-treated maize grains assessed as mortality at 1.6 ppm after 7 days (reference value: 34.4 +/-11.4%); format: functional
Liposcelis paeta [33] = assay: Insecticidal activity against Liposcelis paeta in compound pret-reated wheat grains assessed as mortality at 1.6 ppm after 7 days (reference value: 7.8 +/-3.2%); format: functional; conditions: 168 h

`C=C/C=C\CC1=C(C)[C@@H](OC(=O)[C@@H]2[C@@H](/C=C(\C)C(=O)OC)C2(C)C)CC1=O` [PYRETHRIN] was tested, and the inhibition (Liposcelis entomophila [1]) was “Active”, the inhibition [2] was “inactive” and the mortality at 1.6 ppm (Liposcelis entomophila [3]) was 60%. For the same compound, the inhibition (Lepinotus reticulatus [4]) was “Active”, the inhibition (Liposcelis entomophila [5]) was “inactive” and the inhibition (Lepinotus reticulatus [6]) was “Active”. It also gave a mortality at 1.6 ppm (Liposcelis paeta [7]) of 18.9%, a mortality at 1.6 ppm (Lepinotus reticulatus [8]) of 41.1% and a mortality at 2.2 ppm [9] of 23.3%. For the same compound, the mortality at 1.6 ppm [10] was 18.9%, the mortality at 2.2 ppm (Lepinotus reticulatus [11]) was 23.4% and the mortality at 1.6 ppm (Lepinotus reticulatus [12]) was 65.7%. For the same compound, the inhibition (Liposcelis entomophila [13]) was “Active”, the mortality at 2.2 ppm (Liposcelis paeta [14]) was 15.7% and the mortality at 2.2 ppm (Liposcelis entomophila [15]) was 8.9%. The inhibition [16] was “Active”, the mortality at 1.6 ppm (Lepinotus reticulatus [17]) was 86.7% and the mortality at 1.6 ppm [18] was 17.8%. The mortality at 2.2 ppm (Lepinotus reticulatus [19]) was 14.3%, the mortality at 1.6 ppm (Liposcelis entomophila [20]) was 17.8% and the mortality at 1.6 ppm (Liposcelis paeta [21]) was 14.4%. It also gave a mortality at 1.6 ppm (Liposcelis entomophila [22]) of 47.8%, a mortality at 1.6 ppm [23] of 23.3% and a mortality at 1.6 ppm (Liposcelis paeta [24]) of 10%. The mortality at 1.6 ppm [25] was 30%, the mortality at 2.2 ppm (Liposcelis paeta [26]) was 31.1% and the mortality at 2.2 ppm (Liposcelis entomophila [27]) was 16.7%. The mortality at 2.2 ppm [28] was 26.5%, the inhibition [29] was “inactive” and the mortality at 1.6 ppm (Liposcelis entomophila [30]) was 55.6%. The inhibition (Lepinotus reticulatus [31]) was “inactive”, the mortality at 1.6 ppm (Lepinotus reticulatus [32]) was 57.8% and the mortality at 1.6 ppm (Liposcelis paeta [33]) was 14.5%.
